Results from PMC11393453, “Phosphorylation of tau at a single residue inhibits binding to the E3 ubiquitin ligase, CHIP” (Nature Communications, 2024).
Where two headings read alike, the source gives them in different places.

Legend:
HEK293 FlpIn T-Rex cells = assay: Tau protein abundance by western blot (tau:tubulin); assay type: cell-based; conditions: Fig 3G; for normalized tau:tubulin ratios: normalized to full-length tau
Protocol: Fig. 3 TauC3 Ser416 phosphorylation regulates CHIP-dependent tau homeostasis. A In vitro ubiquitination of tau proteoforms by CHIP. Samples were collected at the denoted timepoints, quenched in SDS-PAGE loading buffer, and analyzed by western blot. B Quantification of unmodified tau remaining following in vitro ubiquitination of varying tau proteoforms by CHIP. Unmodified tau remaining was analyzed by densitometry, normalized to 0-min time point, and curves were fit using one-phase exponential decay (n = 3 technical replicates). C Cartoon schematic depicting promoter architecture and varying C-terminal sequences for HEK293 FlpIn T-Rex cells expressing doxycycline inducible GFP-tau proteoforms. D Representative fluorescence micrographs for GFP-tau cells. Images show tau species associated with microtubules (green, false color), while nuclei are stained with Hoechst 33342 (blue, false color). Scale bar = 30 µm. Images are representative of three separate acquisitions. E Co-immunoprecipitation assay following IP of varying tau species from cells. Whole cell lysate (input) was used for loading controls, and co-immunoprecipitated CHIP was analyzed by western blot. Experiment was repeated in duplicate. F Representative western blot showing differing abundance of various tau proteoforms in HEK293 FlpIn T-Rex cells. Experiment was repeated in duplicate. G Quantification of tau protein abundance taken from three independent biological experiments. Tau:tubulin ratio was determined by densitometry and normalized to full-length tau. Error bars represent SD. Statistical significance was determined by one-way ANOVA with Tukey’s post hoc analysis. H Quantification of MAPT mRNA from three independent biological experiments. MAPT mRNA was normalized to GAPDH and shown relative to full-length tau. Error bars represent SD. Statistical significance was determined by one-way ANOVA with Tukey’s post hoc analysis.
Construction of the stable dox-inducible HEK 293 eGFP-tau reporter cell lines was performed as described. In brief, parent HEK 293 Flp-In T-REx cells were harvested by trypsinization, resuspended in electroporation buffer containing 5 µg eGFP-tau plasmid DNA and 45 µg pOG44 plasmid DNA. Cells were electroporated using program Q-001 on a Lonza 4D-Nucleofector. Electroporated cells were immediately diluted in 10% FBS-DMEM and cultured for 48 h to recover. Following recovery, cells were selected with 100 µg/mL hygromycin until single colonies arose. Colonies were subsequently picked and screened for dox-inducible expression of eGFP-tau by fluorescence microscopy (Echo Revolve) and western blotting.
Prepared samples were separated on precast 4–20% SDS-PAGE gradient gels (Bio-Rad) for 35 min at 200 V. Proteins were transferred to nitrocellulose membranes using a Trans-Blot Turbo Transfer System (Bio-Rad). Membranes were blocked in Odyssey TBS Blocking Buffer (Licor) for 1 h at room temperature and then incubated in primary antibody in 1X Tris-Buffer saline containing 0.05% Tween-20 (1X TBS-T), plus 5% non-fat dry milk powder, and 0.02% NaN3 overnight at 4 °C with rotation. The following day, membranes were washed 3 times in 1X TBS-T and then incubated in secondary antibody diluted 1:10,000 in Odyssey TBS Antibody Diluent (Licor) for 1 h at room temperature. Following incubation with secondary antibody, membranes were washed 3 times in 1X TBS-T and imaged on an Odyssey Fc Imaging System (Licor). Quantification was performed by densitometry analysis in ImageJ (NIH). Raw images, along with select quantifications, can be found in Fig. S6. […]

CHIP = assay: CHIP-tau binding ELISA (tau proteoforms on immobilized CHIP); conditions: Fig 1D

With “tau: full length (FL) 0N4R splice isoform of tau, unmodified; recombinant or expressed in cells” the “normalized tau:tubulin ratios” value (HEK293 FlpIn T-Rex cells; replicate 1) was 107.457, the “normalized tau:tubulin ratios” value (HEK293 FlpIn T-Rex cells; replicate 2) was 93.4819 and the “normalized tau:tubulin ratios” value (HEK293 FlpIn T-Rex cells; replicate 3) was 99.0612. For the same substance, the “raw tau:tubulin ratios” value (HEK293 FlpIn T-Rex cells; replicate 1) was 1.039, the “raw tau:tubulin ratios” value (HEK293 FlpIn T-Rex cells; replicate 2) was 0.9043 and the “raw tau:tubulin ratios” value (HEK293 FlpIn T-Rex cells; replicate 3) was 0.9582. The Kd (CHIP; replicate 1) was 5.98 µM, the Kd (CHIP; replicate 2) was 6.43 µM and the Kd (CHIP; replicate 3) was 6.35 µM. For the same substance, the Kd (CHIP; read-out: transformed Kd, replicate 1) was 5.98 µM, the Kd (CHIP; read-out: transformed Kd, replicate 2) was 6.43 µM and the Kd (CHIP; read-out: transformed Kd, replicate 3) was 6.35 µM.
